In assay [1] the test system is WM 266-4 (cutaneous melanoma). Briefly: Proliferation assay (CellTiter 96), WM266-4 cells. The assay is classed as cell-based, human. As to conditions: Homo sapiens, WM 266-4, pH 6.5, 44 h, cis-UCA 10 mM, CPT 2 μM, 15,000 cells per 100 μl, read-out: Inhibition of proliferation (mean percentage inhibition ± SD compared with untreated control). How it is done: (§1) The cells were cultured in triplicate with or without 2 μM camptothecin (CPT) or 10 mM cis-UCA in a density of 15,000 cells per […]. A, Cells taken from normal pH 7.4 cultures to test conditions at pH 6.5. B, Cells cultured in low pH 6.7 adaptation medium for 3 d, then tested at pH 6.5. C, Cells cultured and tested at pH 7.4.
(§2) Transformed tumour cell lines WM 266-4 and A2058 (cutaneous melanoma), HT-1080 (epithelial fibrosarcoma), HeLa (epithelial adenocarcinoma of cervix), HK293 (kidney epithelial cells) and non-transformed cell line HSF (skin fibroblast from a healthy volunteer donor) of human origin have been described earlier (Li et al. 2003). The K562 (chronic myelogenous leukemia) cells were purchased from American Type Culture Collection.
(§3) The cells were maintained in logarithmic growth phase in IMDM medium (Invitrogen, Paisley, UK) supplemented with 10% fetal calf serum and antibiotics in a humidified incubator at +37° C., 5% CO2. The adherent cells lines were harvested for experiments with 0.25% trypsin-EDTA in PBS for 5 min and then resuspended and washed in medium. After counting of viable cells, 15,000 to 75,000 cells were transferred into flat-bottom 96-well cell culture plates in a volume of 100 or 150 μl.
(§4) The proliferation activity of cultured cell lines was quantified in flat-bottom 96-well plates with a modified colorimetric assay based on a tetrazolium derivative (CellTiter 96 Aqueous One Solution Cell Proliferation Assay, Promega). The cells were cultured in the presence of camptothecin and/or cis-UCA for 20 to 92 h, then the proliferation reagent was added for 2 h, and the absorbance at 490 nm was measured in a plate reader. Blank absorption values in wells containing medium without cells were subtracted before comparison analysis.
(§5) The cell lines were tested in a 44-h culture at pH 6.5 with or without 2 μM camptothecin and 10 mM cis-UCA at 15,000 cells per 100 μl total volume. […] In order to further characterise the effective anti-proliferative concentration range of cis-UCA, proliferation was measured in a 44-h assay at pH 6.5 with cis-UCA concentration ranging from 30 μM to 30 mM.

The subject of assay [2] is A2058 (cutaneous melanoma). Briefly: Proliferation assay (CellTiter 96), A2058 cells. To be noted: Homo sapiens, pH 6.5, 44 h, cis-UCA 10 mM, CPT 2 μM, 15,000 cells per 100 μl, read-out: Inhibition of proliferation (mean percentage inhibition ± SD compared with untreated control). The class given is cell-based, human. How it is done:
as §1
Proliferation was measured in a 44-h assay at pH 6.5 with 30 μM to 30 mM cis-UCA and 2 μM camptothecin. Both proliferation (A) and calculated percentage inhibition data (B) are presented.
as §2, §3, §4, §5

For assay [3], the system named is A2058 tumours. Description: Haematoxylin/eosin staining of tumour sections (necrosis). The assay is classed as in vivo, SCID/SCID mice. To be noted: tumours collected after 16 days; 30 mM cis-UCA, 1 μM CPT intratumoural. An excerpt:
(§6) After 16 days from the first injection, all the animals were sacrificed with CO2, and the tumours were collected and fixed in formalin for further studies. In groups A, C, and D, one mouse was sacrificed before the end of the experiment because of poor development of the tumour (no measurable tumour at day 0). One animal in group B was sacrificed prematurely after it had severly scratched the tumour. Data from these animals were not included in the calculation of the tumour size results. All the removed animals were female mice. Immunohistochemical data was obtained also from the removed mice except from group B. The experiments were conducted under a protocol approved by the local ethics committee.
(§7) Paraffin sections of the tumours were stained with haematoxylin/eosin following standard procedures for an overall picture. Ki67 was stained to detect the amount of proliferating cells. The staining procedure for the Ki67 primary antibody (Dako, Klostrup, Denmark) at 1:50 dilution and secondary antibody (StreptABComplex/HRP Duet Mouse/Rabbit, Dako) at 1:100 dilution followed the instructions provided by the manufacturer. Two sections from each tumour was examined.

For assay [4], the system named is cell lines. Briefly: Proliferation assay, statements on the cell lines as a group. The class given is cell-based, human. As to conditions: camptothecin 2 μM; 44 h; pH 6.5 or 7.4 (FIG. 1). How it is done:
The cells were cultured for 44 h with or without 2 μM camptothecin (CPT) at pH 6.5 or 7.4 conditions. After a 2-h incubation with the proliferation assay reagent, the absorbance at 490 nm was recorded. Cells were cultured in a density of 15,000 cells (K562, HT-1080, HK293) or 75,000 cells (the other cells) in a volume of 150 μl.
Three cell lines were cultured with cis-UCA and/or 1 μM camptothecin at a density of […] per well (100 μl) for 44 h in pH 6.5 medium. Blank wells with all the cis-UCA concentrations but without cells were included and their absorbance subtracted from those of the corresponding test wells.
Transformed tumour cell lines WM 266-4 and A2058 (cutaneous melanoma), HT-1080 (epithelial fibrosarcoma), HeLa (epithelial adenocarcinoma of cervix), HK293 (kidney epithelial cells) and non-transformed cell line HSF (skin fibroblast from a healthy volunteer donor) of human origin have been described earlier (Li et al. 2003). […]
(§8) The proliferation activity of cultured cell lines was quantified in flat-bottom 96-well plates with a modified colorimetric assay based on a tetrazolium derivative (CellTiter 96 Aqueous One Solution Cell Proliferation Assay, Promega). The cells were cultured in the presence of camptothecin and/or cis-UCA for 20 to 92 h, then the proliferation reagent was added for 2 h, and the absorbance at 490 nm was measured in a plate reader. […]

In assay [5] the test system is K562 (chronic myelogenous leukemia). Briefly: Proliferation assay (CellTiter 96), K562 cells. The assay is classed as cell-based, human. As to conditions: Homo sapiens, pH 6.5, 44 h, cis-UCA 10 mM, CPT 2 μM, 15,000 cells per 100 μl, read-out: Inhibition of proliferation (mean percentage inhibition ± SD compared with untreated control).
Description: as §2, §3, §8

Assay [6] relates to HT-1080 (epithelial fibrosarcoma). Briefly: Proliferation assay (CellTiter 96), HT-1080 cells. As to conditions: Homo sapiens, pH 6.5, 44 h, cis-UCA 10 mM, CPT 2 μM, 15,000 cells per 100 μl, read-out: Inhibition of proliferation (mean percentage inhibition ± SD compared with untreated control). The assay is classed as cell-based, human.
Description: as §2, §3, §8

Assay [7] has as its system A2058 human cutaneous melanoma tumours. Briefly: Tumour growth in SCID/SCID mice in vivo. To be noted: 16-day treatment, 1 μM CPT, pH 6.5. As for the experimental part:
All injection solutions were adjusted to pH 6.5. The data points have been normalised to unity tumour size at day 0. Data from five mice in each group is included (mean, SD).
The A2058 human cutaneous melanoma cells were cultured under normal cell culture conditions prior to injection into mice. Two million A2058 cells were injected s.c. into the neck of SCID/SCID mice (Charles River Laboratories, Germany). Tumours were allowed to develop for two weeks to the size of a small pearl before the treatments. The mice were divided into four groups of six animals, each containing three males and three females. Each tumour was first injected 50 μl of one of the test solutions (A: PBS; B: 30 mM cis-UCA; C: 1 μM CPT; D: 30 mM cis-UCA+1 μM CPT) three times a week (Mon-Wed-Fri). After day 7 from the beginning of injections, the injection volume was increased to 150 μl injected into three different sides of the tumour. Tumour length and width were measured with a caliper three times a week before each injection. Tumour planar area was calculated as length×width. The tumour growth inhibition efficiency I of the treatments was calculated according to Equation 1:
[formula] where Sr represents the normalised relative size of the tumour in the control group (A) or any of the treatment groups (T), and d0 to d16 are the (eight) measuring time points during the 16-day treatment period.
as §6

The subject of assay [8] is HK293 (kidney epithelial cells). Briefly: Proliferation assay (CellTiter 96), HK293 cells. The class given is cell-based, human. To be noted: Homo sapiens, Epithelial cell, pH 6.5, 44 h, cis-UCA 10 mM, CPT 2 μM, 15,000 cells per 100 μl, read-out: Inhibition of proliferation (mean percentage inhibition ± SD compared with untreated control).
Description: as §2, §3, §8

In assay [9] the test system is HSF (skin fibroblast). Briefly: Proliferation assay (CellTiter 96), HSF cells. The assay is classed as cell-based, human. To be noted: Homo sapiens, Skin fibroblast, pH 6.5, 44 h, cis-UCA 10 mM, CPT 2 μM, 15,000 cells per 100 μl, read-out: Inhibition of proliferation (mean percentage inhibition ± SD compared with untreated control).
Description: as §2, §3, §8

Assay [10] concerns HeLa (epithelial adenocarcinoma of cervix). Briefly: Proliferation assay (CellTiter 96), HeLa cells. The class given is cell-based, human. As to conditions: Homo sapiens, pH 6.5, 44 h, cis-UCA 10 mM, CPT 2 μM, 15,000 cells per 100 μl, read-out: Inhibition of proliferation (mean percentage inhibition ± SD compared with untreated control).
Description: as §2, §3, §8

The subject of assay [11] is Ki67 (proliferating cells) in A2058 tumours. Description: Immunohistochemistry of tumours, Ki67 staining. The assay is classed as in vivo, SCID/SCID mice. As to conditions: tumours collected after 16 days; 30 mM cis-UCA, 1 μM CPT intratumoural.
Description: as §6, §7

The subject of assay [12] is human polymorphonuclear neutrophils. To be noted: extracellular pH range 6.1 to 7.0; patent application US2006035973; cited from earlier work.

The source of these data is patent US8338475B2, “Anti-proliferative pharmaceutical composition” (BioCis Pharma Oy, priority 2003, dated 2012).

Values joined by “and” are separate entries in the source; they are usually repeats but may differ in a detail not shown here. Equal entries are not always repeated.

`CC[C@@]1(O)C(=O)OCc2c1cc1n(c2=O)Cc2cc3ccccc3nc2-1` [CPT, Camptothecin, reference compound]: the inhibition at 2 µM in assay [1] was determined as 81 ± 1.1%; in [2], 84 ± 3.3%; in assay [5] it was 77 ± 3.3%; in assay [6], 71 ± 1.7%; in assay [8], 56 ± 1%; in [9], 37 ± 0.4%. For the same compound, the inhibition at 2 µM in assay [10] came to 78 ± 1.6%. Further, the “Necrosis (histological sections with haematoxylin/eosin staining)” value in [3] was “Dead cells and large necrotic areas were detected and yes”. Further, the “anti-proliferative effect in all cell line cultures” value in assay [4] is “inhibited the proliferation in all cell line cultures and showed more efficient inhibition at pH 6.5”. Moreover, in assay [7] (intratumoural injection three times a week, 30 mM cis-UCA), the “mean tumour area relative to the initial size at day 0” value is reported as “about four”. Also, the “Growth suppression, female” value in assay [7] (female mice, intratumoural 30 mM cis-UCA) is reported as 90.3%. The “Growth suppression, male” value in assay [7] (male mice, intratumoural 30 mM cis-UCA) turned out to be 44.7%. In assay [11], the “Ki67+ (number of positive tumours/total analysed)” value was “three out of six tumours and 3/6”.
For `O=C(O)C=Cc1c[nH]cn1` [trans-UCA, 3-(1H-imidazol-4-yl)-2-propenoic acid, reference compound], the “effect on the intracellular pH of neutrophils” value in assay [12] is “not trans-UCA affected the intracellular pH”.
